Source: publication PMC12649225, “Machine Learning-Identified Potent Antimicrobial Peptides Against Multidrug-Resistant Bacteria and Skin Infections” (Antibiotics, 2025)
Read-outs that look alike come from different tables or passages of the source. Residues, ends and D or L forms follow the SMILES beside them.

Experiments:
[1] = tested on: S. aureus JAR060131 biofilm; experiment: Biofilm killing; format: cell-based, Staphylococcus aureus; settings: for Concentration giving ≥3-log reduction of S. aureus biofilm CFU within 24 h: 24 h treatment, >3 log for BP2 and pexiganan; for Concentration giving ≥3-log reduction of S. aureus biofilm CFU within 2 h / Concentration giving complete eradication of S. aureus biofilm within 24 h: 24 h biofilm; for Concentration giving ≥3-log reduction of S. aureus biofilm CFU within 2 h: 2 h treatment in PBS; for Concentration giving complete eradication of S. aureus biofilm within 24 h: 24 h treatment in PBS
Procedure: (§1) Mid-logarithmic phase cultures of A. baumannii RUH875 or S. aureus JAR060131 were diluted to 1 × 10^8 CFU/mL in RPMI supplemented with 1% glucose. A total of 100 μL of each suspension was added to flat-bottom polystyrene 96-well microplates (Costar) and incubated under static conditions at 37 °C in a humidified atmosphere for 24 h to allow biofilm formation. After 24 h, planktonic bacteria were removed, and wells were carefully washed with 100 μL PBS [60]. […] Control samples were exposed to 100 μL of PBS only.
(§2) Biofilms were treated at 37 °C for either 2 or 24 h. […] Plates were sealed and sonicated for 5 min (Elmasonic, Singen, Germany; 45 kHz) at room temperature to dislodge adherent bacteria. […] Quantitative cultures were performed by plating serial 10-fold dilutions on sheep blood agar, and results were expressed as log10 CFU per well. The lower limit of detection was three CFU. Each condition was tested in six replicates.

[2] = tested on: BJ human skin fibroblast cells; experiment: LDH leakage assay (membrane integrity); settings: lowest concentration causing >30% LDH leakage; BJ fibroblasts; 24 h; DMEM with 2% FBS; 0.05-60 µM
Procedure: (§3) BJ human skin fibroblast cells (ATCC CRL-2522; RRID: CVCL_3653; LGC Standards, Germany (September 2023)) were cultured in Dulbecco’s Modified Eagle Medium (DMEM; Gibco, Waltham, MA, USA) supplemented with 10% (v/v) foetal bovine serum (FBS; Sigma-Aldrich) and 1% (v/v) penicillin/streptomycin (pen/strep; Gibco). Cell suspensions (5 × 10^5 cells/mL) were seeded into 96-well plates (100 μL/well; Thermo Scientific, Waltham, MA, USA) and allowed to adhere for 24 h. Monolayers were then exposed to two-fold serial dilutions of GDST peptides, their RI variants, and reference peptides (final concentrations: 0.05 to 60 µM) in fresh DMEM with 2% (v/v) FBS for 24 h at 37 °C in a humidified atmosphere with 5% CO2.
(§4) Cell viability and membrane integrity were assessed using the water-soluble tetrazolium salt (WST-1; Roche, Basel, Switzerland) assay and the lactate dehydrogenase (LDH; Abcam, Cambridge, UK) assay, respectively, according to manufacturer instructions. Results were expressed as percentages of metabolic activity and LDH leakage relative to untreated control cells and the positive lysis control, respectively. The cytotoxic concentration was defined as the lowest peptide concentration causing <70% metabolic activity and >30% LDH leakage. All experiments were performed in triplicate.

[3] = tested on: S. aureus JAR060131; experiment: 3D human skin equivalent (HSE) infection model; format: cell-based, Staphylococcus aureus; settings: for Concentration giving significant reductions in adherent S. aureus in HSE / Concentration eradicating adherent S. aureus in HSE: adherent fraction; for Concentration giving significant reductions in adherent S. aureus in HSE: p < 0.001
Procedure: Human keratinocytes (Ker-CT cell line; ATCC CRL-4048; RRID: CVCL_S877; ATCC, Manassas, VA, USA (October 2017)) were used to generate human skin equivalents (HSEs) following the method described by Gent et al.. Briefly, HSEs were cultured for 12 days, after which the culture medium was replaced with antibiotic-free medium, and cells were grown for an additional two days before infection (Figure S2). On the day of infection, HSEs were inoculated with 300 µL of S. aureus JAR060131 suspension (3 × 10^5 CFU) and incubated for 1 h at 37 °C with 5% CO2. Following incubation, the bacterial suspension was removed, and HSEs were washed once with 500 µL PBS. HSEs were then treated for 4 h with PBS (control), GDST-038, GDST-045, their RI variants, or the reference peptide SAAP-148 at concentrations of 3.75, 15, and 60 μM, in triplicate. Subsequently, supernatants containing planktonic (non-adherent) bacteria were collected and kept on ice. Peptide activity was neutralized by adding SPS (final concentration: 0.025% (v/v)). Adherent bacteria within HSEs were quantified by homogenizing the tissues in 0.5 mL PBS containing 0.025% (v/v) SPS, using five zirconia beads (Ø 2 mm; BioSpec Products, Bartlesville, OK, USA) in a MagNA Lyser System (Roche) for three cycles of 30 sec at 7000 rpm, with 30 sec cooling intervals on ice. Both supernatants and homogenized fractions were serially diluted, plated on blood agar, and incubated overnight at 37 °C to determine CFU counts.

[4] = tested on: BJ human skin fibroblast cells; experiment: WST-1 metabolic activity assay (cell viability); settings: lowest concentration causing <70% metabolic activity (WST-1); BJ fibroblasts; 24 h; DMEM with 2% FBS; 0.05-60 µM
Procedure: as §3, §4

[5] = tested on: A. baumannii RUH875
Procedure: (§5) Bacteria incubated in PBS alone served as no-treatment controls. At five time points (1, 2, 5, 30, and 120 min), duplicate 50 µL samples were taken and immediately mixed with 50 µL of 0.05% (v/v) sodium polyanethol sulfonate (SPS; Sigma-Aldrich) in PBS to neutralize residual peptide activity. The number of viable bacteria was quantified by plating 10 µL aliquots of serial 10-fold dilutions onto sheep blood agar plates. Colonies were counted after 24 h of incubation at 37 °C.

[6] = tested on: S. aureus JAR060131
Procedure: as §5

[7] = tested on: A. baumannii RUH875 biofilm; experiment: Biofilm killing; format: cell-based, Acinetobacter baumannii; settings: for Concentration killing ≥3 log CFU of A. baumannii biofilm within 2 h / Concentration giving complete eradication of A. baumannii biofilm, 24 h treatment: 24 h biofilm; for Concentration killing ≥3 log CFU of A. baumannii biofilm within 2 h: 2 h treatment in PBS, 1.88-120 μM, vs untreated biofilm; for Concentration giving complete eradication of A. baumannii biofilm, 24 h treatment: 24 h treatment in PBS; for A. baumannii biofilm killing, 24 h treatment (in words): up to 120 µM
Procedure: as §1, §2

[8] = tested on: A. baumannii RUH875; experiment: microbe, parasite or virus in culture; format: cell-based, Acinetobacter baumannii; settings: RPMI, 48 h
Procedure: (§6) The potential for resistance development to GDST-038, GDST-045, and their RI variants was assessed as described by Habets and Brockhurst. Resistance development to the antibiotics rifampicin and ciprofloxacin (both from Sigma-Aldrich) was evaluated for comparison. Briefly, 10 μL of a mid-logarithmic phase culture of A. baumannii RUH875 or S. aureus JAR060131 was added to 90 μL of peptide (final concentrations: 0.23 to 120 μM) or antibiotic (final concentrations: 0.03 to 256 μg/mL) solution in RPMI, in 96-well polypropylene round-bottom plates (Costar). All incubations were performed in quadruplicate. Plates were sealed with breathable seals (Greiner) and incubated at 37 °C with shaking at 120 rpm in a humidified environment for 18 h (S. aureus) or 48 h (A. baumannii).
(§7) The minimum inhibitory concentration (MIC), defined as the lowest concentration that inhibited visible bacterial growth, was then determined. Subsequently, 2 μL from the 0.5-fold MIC condition was transferred to fresh medium containing a concentration series ranging from 0.5- to 8-fold the new MIC. This procedure was repeated over 22 consecutive passages to monitor resistance development.

[9] = tested on: S. aureus JAR060131; experiment: microbe, parasite or virus in culture; format: cell-based, Staphylococcus aureus; settings: RPMI, 18 h
Procedure: as §6, §7

[10] = 4 h peptide exposure, tested 3.75, 15, 60 μM
[11] = at all tested concentrations (3.75 µM, 15 µM, and 60 µM), 4 h

Compound	Concentration giving ≥3-log reduction of S. aureus biofilm CFU within 24 h [1]	Cytotoxicity LDH Leakage >30% [2]	Concentration giving significant reductions in adherent S. aureus in HSE ([3]; 4 h)	Effect on non-adherent S. aureus in HSE ([3]; at 15 µM and 60 µM, 4 h)	Cytotoxicity Metabolic Activity <70% [4]	Time to complete killing of A. baumannii ([5]; 3.75 μM)	Time to complete killing of S. aureus ([6]; 3.75 μM)	Concentration killing ≥3 log CFU of A. baumannii biofilm within 2 h [7]	Concentration giving complete eradication of A. baumannii biofilm, 24 h treatment [7]	Concentration giving ≥3-log reduction of S. aureus biofilm CFU within 2 h [1]	Concentration giving complete eradication of S. aureus biofilm within 24 h [1]	Concentration eradicating adherent S. aureus in HSE [3, 10]	Effect on non-adherent S. aureus in HSE [3, 11]	Time to complete killing of S. aureus ([6]; 1.88 μM)	A. baumannii biofilm killing, 24 h treatment (in words) ([7]; 24 h treatment)	other results
CC[C@@H](C)[C@@H](NC(=O)[C@@H](C)NC(=O)[C@@H](CCCCN)NC(=O)[C@@H](CCCCN)NC(=O)[C@@H](Cc1c[nH]c2ccccc12)NC(=O)[C@@H](Cc1c[nH]c2ccccc12)NC(=O)[C@@H](CCCNC(=N)N)NC(=O)[C@@H](CC(C)C)NC(=O)[C@@H](CC(C)C)NC(C)=O)C(=O)N[C@H](CCCCN)C(=O)N[C@@H](C(=O)N[C@H](Cc1c[nH]c2ccccc12)C(=O)N[C@H](CCCNC(=N)N)C(=O)N[C@H](CCCCN)C(N)=O)C(C)C [GDST-038-RI] (HELM PEPTIDE1{[ac].[dL].[dL].[dR].[dW].[dW].[dK].[dK].[dA].[dI].[dK].[dV].[dW].[dR].[dK].[am]}$$$$V2.0; N-terminus and C-terminus assumed)	≥ 60 µM	3.75 µM	60 µM	significant bacterial reductions	3.75 µM	120 min	≤ 2 min	60 µM	≥ 60 µM							
CC[C@@H](C)[C@@H](NC(=O)[C@@H](CC(C)C)NC(=O)[C@@H](CCCCN)NC(=O)[C@@H](CCCCN)NC(=O)[C@H](NC(=O)[C@@H](Cc1c[nH]c2ccccc12)NC(=O)[C@@H](CCCNC(=N)N)NC(=O)[C@@H](Cc1ccccc1)NC(=O)[C@@H](CC(C)C)NC(C)=O)C(C)C)C(=O)N[C@H](CCCCN)C(=O)N[C@@H](C(=O)N[C@H](Cc1c[nH]c2ccccc12)C(=O)N[C@H](CCCNC(=N)N)C(=O)N[C@H](CCCCN)C(N)=O)C(C)C [GDST-045-RI] (HELM PEPTIDE1{[ac].[dL].[dF].[dR].[dW].[dV].[dK].[dK].[dL].[dI].[dK].[dV].[dW].[dR].[dK].[am]}$$$$V2.0; N-terminus and C-terminus assumed)		3.75 µM	15 µM	significant bacterial reductions	3.75 µM	≤ 120 min	≤ 30 min	≥ 30 µM	120 µM	≥ 30 µM	120 µM					
Ac-KRWVKIAKKWWRLL-NH2 [GDST-038]	120 µM	3.75 µM			3.75 µM			120 µM		≥ 60 µM		15 µM	completely eradicated	≤ 5 min	did not cause significant biofilm CFU reduction	S. aureus biofilm CFU reduction within 2 h ([1]; 2 h treatment, concentration not given): 5.1 log CFU; Time to complete killing of A. baumannii ([5]; 1.88 μM): ≤ 5 min; Killing of A. baumannii within 5 min ([5]; 1.88 μM, PBS, 5 min): > 90%; Killing of S. aureus within 5 min ([6]; 1.88 μM, PBS, 5 min): > 90%; MIC A. baumannii, stable over 22 passages [8]: 0.47 µM; MIC S. aureus at the 22nd passage [9]: 1.88 µM; MIC S. aureus at the 1st passage ([9]; median of four replicates): 0.94 µM
Ac-KRWVKILKKVWRFL-NH2 [GDST-045]		3.75 µM			3.75 µM			60 µM		≥ 7.5 µM	≥ 30 µM	15 µM	completely eradicated	≤ 2 min		MIC A. baumannii at passage 16 (peak) [8]: 7.50 µM; MIC A. baumannii at the 1st passage ([8]; median of four replicates): 0.94 µM; MIC A. baumannii at the 22nd passage ([8]; serial passage at sub-inhibitory concentrations): 0.47 µM; Reduction in A. baumannii biofilm CFU, 24 h treatment ([7]; at ≥60 µM, 24 h treatment): 3.5 log; MIC S. aureus, constant throughout all passages ([9]; 22 passages): 0.47 µM
Ac-LKRVWKRVFKLLKRYWRQLKKPVR-NH2 (N-terminus and C-terminus assumed) [SAAP-148, reference compound]		1.88 µM			3.75 µM			≥ 15 µM				60 µM			complete eradication	CFU reduction of non-adherent S. aureus in HSE ([3]; 15 µM, 4 h, non-adherent fraction): 3 log CFU; Concentration reducing non-adherent S. aureus to below the detection limit in HSE ([3]; non-adherent fraction, 4 h peptide exposure, tested 3.75, 15, 60 μM): 60 µM
